Measured values reported in ChEMBL document CHEMBL1153831, “Azithromycin blocks quorum sensing and alginate polymer formation and increases the sensitivity to serum and stationary-growth-phase killing of Pseudomonas aeruginosa and attenuates chronic P. aeruginosa lung infection in Cftr(-/-) mice” (Antimicrob Agents Chemother, 2007).
The source made the active and inactive calls. No cut-off for these calls is given here.

Key:
[1] = Elimination half life in Cftr-tml-Unc-TgN(FABPCFTR) cystic fibrosis mouse model at 500 mg/kg, po; assay type: ADME, organism-based; parameters: dose 500 mg/kg, route oral; settings: in vivo, read-out: beta t1/2 (converted)
Pseudomonas aeruginosa [2] = test: Antimicrobial activity against Pseudomonas aeruginosa NH57388C nonmucoid isolate expressing quorum sensing lasI assessed as reduction of viable count at 12 ug/mL in presence of 2.5% human normal serum; assay type: functional
Pseudomonas aeruginosa [3] = test: Antimicrobial activity against Pseudomonas aeruginosa NH57388A mucoid isolate assessed as reduction of viable count in stationary phase at 16 ug/mL after 8 hrs; assay type: functional
Pseudomonas aeruginosa [4] = test: Inhibition of quorum sensing-regulated pyocyanin production in Pseudomonas aeruginosa NH57388A mucoid isolate harboring GFP-fused […] lasB gene assessed as enzyme activity per cell at 2 ug/mL after 24 hrs relative to control; assay type: functional
[5] = Drug level in Cftr-tml-Unc-TgN(FABPCFTR) cystic fibrosis mouse serum at 500 mg/kg, po after 2 hrs; assay type: ADME, organism-based; parameters: dose 500 mg/kg, route oral; settings: read-out: Drug uptake
Pseudomonas aeruginosa [6] = test: Inhibition of quorum sensing-regulated alginate production in Pseudomonas aeruginosa NH57388A mucoid isolate harboring GFP-fused […] lasB gene assessed as enzyme activity per cell at 2 ug/mL after 24 hrs relative to control; assay type: functional
[7] = Drug level in Cftr-tml-Unc-TgN(FABPCFTR) cystic fibrosis mouse serum at 500 mg/kg, po after 0.5 hrs; assay type: ADME, organism-based; parameters: dose 500 mg/kg, route oral; settings: read-out: Drug uptake
Pseudomonas aeruginosa [8] = test: Antimicrobial activity against quorum sensing lasI-deficient isogenic Pseudomonas aeruginosa NH57388E nonmucoid isolate assessed as reduction of viable count at 12 ug/mL in absence of 2.5% human normal serum; assay type: functional
Pseudomonas aeruginosa [9] = test: Antimicrobial activity against Pseudomonas aeruginosa NH57388A mucoid isolate expressing quorum sensing lasI assessed as reduction of viable count at 12 ug/mL in absence of 2.5% human normal serum; assay type: functional
Pseudomonas aeruginosa [10] = test: (§1) Antimicrobial activity in Pseudomonas aeruginosa NH57388A mucoid isolate harboring GFP-fused avian sarcoma virus lasB gene infected in ftr-tml-Unc-TgN(FABPCFTR) cystic fibrosis mouse assessed as frequency of lung abscesses at 500 mg/kg, po administered 24 hrs after infection daily once for 5 days measured after 7 days postinfection; assay type: functional
Pseudomonas aeruginosa [11] = test: Toxicity in Pseudomonas aeruginosa NH57388A mucoid isolate harboring GFP-fused […] lasB gene assessed as growth rate at 2 to 12 ug/mL after 14 hrs by molecular technology relative to control; assay type: organism-based
Mus musculus = organism: Mus musculus; test: Elimination half life in healthy mouse; assay type: ADME, organism-based; settings: in vivo
Pseudomonas aeruginosa [12] = test: Antimicrobial activity against Pseudomonas aeruginosa NH57388A mucoid isolate assessed as reduction of viable count in exponential phase at 256 ug/mL after 8 hrs; assay type: functional
Pseudomonas aeruginosa [13] = test: Inhibition of alginate synthesis in Pseudomonas aeruginosa NH57388A mucoid isolate supernatant assessed as uronic acid concentration in outside of dialysis bag after equilibrium dialysis at 12 ug/mL after 24 hrs by carbazole-borate assay; assay type: functional
Pseudomonas aeruginosa [14] = test: as §1, with “activity against” for “activity in”, “as mortality” for “as frequency of lung abscesses”, “hrs postinfection” for “hrs after infection”; assay type: functional
[15] = Drug level in Cftr-tml-Unc-TgN(FABPCFTR) cystic fibrosis mouse serum at 500 mg/kg, po after 1 hr; assay type: ADME, organism-based; parameters: dose 500 mg/kg, route oral; settings: read-out: Drug uptake
Pseudomonas aeruginosa [16] = test: Inhibition of quorum sensing-regulated elastase production in Pseudomonas aeruginosa NH57388A mucoid isolate harboring GFP-fused […] lasB gene assessed as enzyme activity per cell at 8 ug/mL after 24 hrs relative to control; assay type: functional
Pseudomonas aeruginosa [17] = test: as §1, with “mouse lung” for “mouse”, “fibrous spongy-like material surrounding polymorphonuclear leukocytes” for “frequency of lung abscesses”, “postinfection by histopathology” for “postinfection”; assay type: functional, organism-based; parameters: dose 500 mg/kg
Pseudomonas aeruginosa [18] = test: Antimicrobial activity against Pseudomonas aeruginosa NH57388A mucoid isolate assessed as reduction of viable count in exponential phase at 64 ug/mL after 8 hrs; assay type: functional
Pseudomonas aeruginosa [19] = test: Antimicrobial activity against Pseudomonas aeruginosa NH57388A mucoid isolate assessed as reduction of viable count in stationary phase at 2 ug/mL after 8 hrs; assay type: functional
Pseudomonas aeruginosa [20] = test: Inhibition of alginate synthesis in Pseudomonas aeruginosa NH57388A mucoid isolate supernatant assessed as uronic acid fraction out of the dialysis bag of total amount of uronic acids after exhaustive dialysis at 12 ug/mL after 24 hrs by carbazole-borate assay; assay type: functional; parameters: scale not given: the % may be the effect or the level left
Pseudomonas aeruginosa [21] = test: Antimicrobial activity against Pseudomonas aeruginosa NH57388C nonmucoid isolate expressing quorum sensing lasI assessed as reduction of viable count at 12 ug/mL in absence of 2.5% human normal serum; assay type: functional
[22] = Elimination half life in human; assay type: ADME, organism-based; settings: in vivo, read-out: beta t1/2 (converted)
Pseudomonas aeruginosa [23] = test: Antimicrobial activity against Pseudomonas aeruginosa NH57388A mucoid isolate after overnight incubation by E-test; assay type: functional
Pseudomonas aeruginosa [24] = test: Increase in sensitivity of hydrogen peroxide to quorum sensing lasI-deficient isogenic Pseudomonas aeruginosa NH57388A mucoid isolate mutant assessed as increase in zone of inhibition at 12 ug/mL after 48 hrs relative to untreated bacterial control; assay type: functional; parameters: scale not given: the % may be the effect or the level left
Pseudomonas aeruginosa [25] = test: Inhibition of quorum sensing-regulated chitinase production in Pseudomonas aeruginosa NH57388A mucoid isolate harboring GFP-fused […] lasB gene assessed as enzyme activity per cell at 4 ug/mL after 24 hrs relative to control; assay type: functional
Pseudomonas aeruginosa [26] = test: Inhibition of alginate synthesis in Pseudomonas aeruginosa NH57388A mucoid isolate supernatant assessed as uronic acid concentration in dialysis bag before exhaustive dialysis at 12 ug/mL after 24 hrs by carbazole-borate assay; assay type: functional
Pseudomonas aeruginosa [27] = test: Antimicrobial activity against quorum sensing lasI-deficient isogenic Pseudomonas aeruginosa NH57388D mucoid isolate assessed as reduction of viable count at 12 ug/mL in absence of 2.5% human normal serum; assay type: functional
Pseudomonas aeruginosa [28] = test: Inhibition of quorum sensing-regulated alginate production in Pseudomonas aeruginosa NH57388A mucoid isolate harboring GFP-fused […] lasB gene assessed as enzyme activity per cell at 4 ug/mL after 24 hrs relative to control; assay type: functional
Pseudomonas aeruginosa [29] = test: Antimicrobial activity against quorum sensing lasI-deficient isogenic nonmucoid Pseudomonas aeruginosa NH57388E mutant assessed as reduction of viable count at 12 ug/mL in presence of 2.5% human normal serum; assay type: functional
Pseudomonas aeruginosa [30] = test: Inhibition of quorum sensing-regulated elastase production in Pseudomonas aeruginosa NH57388A mucoid isolate harboring GFP-fused […] lasB gene assessed as enzyme activity per cell at 4 ug/mL after 24 hrs relative to control; assay type: functional
Pseudomonas aeruginosa [31] = test: Inhibition of quorum sensing-regulated chitinase production in Pseudomonas aeruginosa NH57388A mucoid isolate harboring GFP-fused […] lasB gene assessed as enzyme activity per cell at 2 ug/mL after 24 hrs relative to control; assay type: functional
Pseudomonas aeruginosa [32] = test: Inhibition of alginate synthesis in Pseudomonas aeruginosa NH57388A mucoid isolate supernatant assessed as uronic acid concentration in dialysis bag after exhaustive dialysis at 12 ug/mL after 24 hrs by carbazole-borate assay; assay type: functional
Pseudomonas aeruginosa [33] = test: Inhibition of alginate synthesis in Pseudomonas aeruginosa NH57388A mucoid isolate supernatant assessed as uronic acid fraction out of the dialysis bag of total amount of uronic acids after equilibrium dialysis at 12 ug/mL after 24 hrs by carbazole-borate assay; assay type: functional; parameters: scale not given: the % may be the effect or the level left
Pseudomonas aeruginosa [34] = test: as §1, with “mouse lung” for “mouse”, “debris-like granular material surrounding polymorphonuclear leukocytes” for “frequency of lung abscesses”, “postinfection by histopathology” for “postinfection”; assay type: functional, organism-based; parameters: dose 500 mg/kg
Pseudomonas aeruginosa [35] = test: Inhibition of quorum sensing-regulated pyocyanin production in Pseudomonas aeruginosa NH57388A mucoid isolate harboring GFP-fused […] lasB gene assessed as enzyme activity per cell at 8 ug/mL after 24 hrs relative to control; assay type: functional
Pseudomonas aeruginosa [36] = test: Increase in sensitivity of hydrogen peroxide to Pseudomonas aeruginosa NH57388A mucoid isolate expressing quorum sensing lasI assessed as increase in zone of inhibition at 12 ug/mL after 48 hrs relative to untreated bacterial control; assay type: functional; parameters: scale not given: the % may be the effect or the level left
Pseudomonas aeruginosa [37] = test: as §1, with “mouse lungs” for “mouse”, “median alginate content in lungs” for “frequency of lung abscesses”; assay type: functional
Pseudomonas aeruginosa [38] = test: Inhibition of quorum sensing-regulated chitinase production in Pseudomonas aeruginosa NH57388A mucoid isolate harboring GFP-fused […] lasB gene assessed as enzyme activity per cell at 8 ug/mL after 24 hrs relative to control; assay type: functional
Pseudomonas aeruginosa [39] = test: Inhibition of quorum sensing-regulated alginate production in Pseudomonas aeruginosa NH57388A mucoid isolate harboring GFP-fused […] lasB gene assessed as enzyme activity per cell at 8 ug/mL after 24 hrs relative to control; assay type: functional
Pseudomonas aeruginosa [40] = test: Inhibition of quorum sensing in Pseudomonas aeruginosa NH57388A mucoid isolate harboring GFP-fused […] lasB gene assessed as suppression of GFP expression after 14 hrs by molecular technology; assay type: functional, organism-based
Pseudomonas aeruginosa [41] = test: Antimicrobial activity against Pseudomonas aeruginosa NH57388A mucoid isolate harboring GFP-fused […] lasB gene infected in ftr-tml-Unc-TgN(FABPCFTR) cystic fibrosis mouse lungs assessed as reduction in GFP signal at 250 mg/kg, iv administered 24 hrs after infection measured after 24 hrs; assay type: functional, organism-based; parameters: dose 250 mg/kg
[42] = Drug level in Cftr-tml-Unc-TgN(FABPCFTR) cystic fibrosis mouse serum at 500 mg/kg, po after 4 hrs; assay type: ADME, organism-based; parameters: dose 500 mg/kg, route oral; settings: read-out: Drug uptake
Pseudomonas aeruginosa [43] = test: Inhibition of quorum sensing-regulated elastase production in Pseudomonas aeruginosa NH57388A mucoid isolate harboring GFP-fused […] lasB gene assessed as enzyme activity per cell at 2 ug/mL after 24 hrs relative to control; assay type: functional
Pseudomonas aeruginosa [44] = test: Inhibition of quorum sensing-regulated pyocyanin production in Pseudomonas aeruginosa NH57388A mucoid isolate harboring GFP-fused […] lasB gene assessed as enzyme activity per cell at 4 ug/mL after 24 hrs relative to control; assay type: functional
Pseudomonas aeruginosa [45] = test: Antimicrobial activity against Pseudomonas aeruginosa NH57388A mucoid isolate expressing quorum sensing lasI assessed as reduction of viable count at 12 ug/mL in presence of 2.5% human normal serum; assay type: functional
Pseudomonas aeruginosa [46] = test: Antimicrobial activity against quorum sensing lasI-deficient isogenic Pseudomonas aeruginosa NH57388D mucoid isolate assessed as reduction of viable count at 12 ug/mL in presence of 2.5% human normal serum; assay type: functional
Pseudomonas aeruginosa [47] = test: Inhibition of alginate synthesis in Pseudomonas aeruginosa NH57388A mucoid isolate supernatant assessed as uronic acid concentration in inside of dialysis bag after equilibrium dialysis at 12 ug/mL after 24 hrs by carbazole-borate assay; assay type: functional
Pseudomonas aeruginosa [48] = test: as §1, with “mouse lung” for “mouse”, “scattered residues” for “frequency”, “alginate without bacteria” for “lung abscesses”, “postinfection by histopathology” for “postinfection”; assay type: functional, organism-based; parameters: dose 500 mg/kg

SMILES: CC[C@H]1OC(=O)[C@H](C)[C@@H](O[C@H]2C[C@@](C)(OC)[C@@H](O)[C@H](C)O2)[C@H](C)[C@@H](O[C@@H]2O[C@H](C)C[C@H](N(C)C)[C@H]2O)[C@](C)(O)C[C@@H](C)CN(C)[C@H](C)[C@@H](O)[C@]1(C)O [AZITHROMYCIN]
- half-life [1]: 2.3 h
- CFU (Pseudomonas aeruginosa [2]): 0 mL
- Activity (Pseudomonas aeruginosa [3]): 99%
- inhibition at 2 µg/mL (Pseudomonas aeruginosa [4]): 43%
- concentration at 2 h [5]: 3100 ng/mL
- inhibition at 2 µg/mL (Pseudomonas aeruginosa [6]): 63%
- concentration at 0.5 h [7]: 2900 ng/mL
- CFU (Pseudomonas aeruginosa [8]): 3.8 ×10⁷ /ml
- CFU (Pseudomonas aeruginosa [9]): 31 ×10⁶ /ml
- Activity (Pseudomonas aeruginosa [10]): 32%
- Activity (Pseudomonas aeruginosa [11]): Non-toxic
- beta t1/2 (Mus musculus): 0.733 h
- Activity (Pseudomonas aeruginosa [12]): 99%
- Activity (Pseudomonas aeruginosa [13]): 143 µg/mL
- Activity (Pseudomonas aeruginosa [14]): 24%
- concentration at 1 h [15]: 2900 ng/mL
- inhibition at 8 µg/mL (Pseudomonas aeruginosa [16]): 51%
- Activity (Pseudomonas aeruginosa [17]): Active
- Activity (Pseudomonas aeruginosa [18]): 87%
- Activity (Pseudomonas aeruginosa [19]): 88%
- Activity (Pseudomonas aeruginosa [20]): 67.4%
- CFU (Pseudomonas aeruginosa [21]): 110 ×10⁵ /ml
- half-life [22]: 68 h
- MIC (Pseudomonas aeruginosa [23]): > 256 µg/mL
- Activity (Pseudomonas aeruginosa [24]): 43%
- inhibition at 4 µg/mL (Pseudomonas aeruginosa [25]): 15%
- Activity (Pseudomonas aeruginosa [26]): 316 µg/mL
- CFU (Pseudomonas aeruginosa [27]): 55 ×10⁶ /ml
- inhibition at 4 µg/mL (Pseudomonas aeruginosa [28]): 56%
- CFU (Pseudomonas aeruginosa [29]): 2 ×10³ /ml
- inhibition at 4 µg/mL (Pseudomonas aeruginosa [30]): 45%
- inhibition at 2 µg/mL (Pseudomonas aeruginosa [31]): 66%
- Activity (Pseudomonas aeruginosa [32]): 103 µg/mL
- Activity (Pseudomonas aeruginosa [33]): 31.2%
- Activity (Pseudomonas aeruginosa [34]): Active
- inhibition at 8 µg/mL (Pseudomonas aeruginosa [35]): 16%
- Activity (Pseudomonas aeruginosa [36]): 31%
- Activity (Pseudomonas aeruginosa [37]): 10 µg/mL
- inhibition at 8 µg/mL (Pseudomonas aeruginosa [38]): 10%
- inhibition at 8 µg/mL (Pseudomonas aeruginosa [39]): 52%
- Activity (Pseudomonas aeruginosa [40]): Dose-dependent effect
- Activity (Pseudomonas aeruginosa [41]): Active
- concentration at 4 h [42]: 1700 ng/mL
- inhibition at 2 µg/mL (Pseudomonas aeruginosa [43]): 77%
- inhibition at 4 µg/mL (Pseudomonas aeruginosa [44]): 32%
- CFU (Pseudomonas aeruginosa [45]): 2.5 ×10² /ml
- CFU (Pseudomonas aeruginosa [46]): 8.6 ×10⁵ /ml
- Activity (Pseudomonas aeruginosa [47]): 316 µg/mL
- Activity (Pseudomonas aeruginosa [48]): Active
